Test results: patent US4399065A, “D-Phenylalanyl-L-prolyl-L-arginine aldehyde sulfate and process for the preparation thereof” (Patentbureau Danubia, priority 1981, dated 1983)
“And” between values parts separate entries of the source, which are not always exact repeats. Equal entries are not always repeated.

Assays:
[1] = Acute toxicity in mice; format: in vivo; details: mouse, in vivo
[2] = target: T1, U.S. Standard Human Thrombin (Homo sapiens, UniProt P00734); experiment: Antithrombin activity (thrombin time) of peptide solutions stored in isotonic salt solution, fibrinogen system; details: for Relative activity after 0 days: 10 mg/ml, 100 = fivefold relative thrombin time at 3.5 × 10^-7 M
Protocol: In the course of our tests the peptides were dissolved in concentrations of 10 mg/ml, stored at 5° C., and the ensuing change in antithrombin activity registered for 180 days. The potency was assayed in a system containing the following components:
0.2 ml of 0.5 percent bovine fibrinogen in a 0.9 percent solution of sodium chloride,
0.1 ml of tris(hydroxymethyl)-amino-methane hydrochloride--hydrochloric acid buffer (pH 7.2) containing the peptide solution
0.1 ml of U.S. Standard Human Thrombin (NIH, Bethesda, Md., USA), 10 Unit/ml solution.
The activity of the tripeptide aldehyde solution was arbitrarily set up as 100, if the reaction mixture induced a fivefold relative thrombin time at a final concentration of 3.5×10^-7 M (in the case of the tripeptide aldehyde sulfate at 0.175 μg/ml).

[3] = system: thrombin time in the whole blood; experiment: In vivo trial, rabbit: dose required to prolong thrombin time in the whole blood 1.5 to 2.5 fold; details: thrombin time in whole blood prolonged 1.5 to 2.5 fold
Source text: (§1) ^a The therapeutic effect is characterized by the dose required to […]

[4] = system: thrombin time in the whole blood; experiment: In vivo trial, dog: dose required to prolong thrombin time in the whole blood 1.5 to 2.5 fold; details: thrombin time in whole blood prolonged 1.5 to 2.5 fold
Source text: as §1

[5] = target: T1, U.S. Standard Human Thrombin; experiment: Antithrombin activity (thrombin time) in human plasma; format: biochemical; set-up: U.S. Standard Human Thrombin; purchased NIH, Bethesda, Md., USA; details: for amount required for a twofold thrombin time increase relative to the tripeptide aldehyde sulfate: human plasma; for IC (2-fold thrombin time): pH 7.2, read-out: Amount of peptide required to increase thrombin time twofold immediately following dissolution of the peptide; for Relative activity: sulfate = 100
Protocol: In order to simulate physiological conditions the antithrombin activity of the tripeptide aldehyde salts as well as that of the carbamic acid derivatives was tested also on human plasma in the following system:
0.2 ml of human citrate plasma,
0.1 ml of tris(hydroxymethyl)-amino-methane hydrochloride--hydrochloric acid buffer solution (pH 7.2) containing the peptide solution, and
0.1 ml of U.S. Standard Human Thrombin (NIH, Bethesda Md., USA), 10 Units/ml solution.

[6] = Stability of peptide aldehyde salts/derivatives in aqueous solution and in solid form; format: physicochemical
[7] = system: thrombin; details: known from Hungarian Pat. No. 169,870 / Belgian Pat. No. 880,844; cited from earlier work
[8] = cited from earlier work
[9] = system: mice; experiment: Acute toxicity in mice; format: in vivo; details: acute toxicity
[10] = system: thrombin time in the whole blood; experiment: In vivo trial of the tripeptide aldehyde derivatives, summary statements; set-up: species or system rabbit, dog; details: for oral dose at which therapeutic effect may be achieved: species not given
Source text: as §1

[11] = Acute toxicity at intravenous infusion in the rabbit; details: in vivo
[12] = Solubility; format: physicochemical
[13] = ip, mice, i.p., read-out: LD50 i.p.
[14] = iv, mice, i.v. bolus, read-out: LD50 i.v. bolus
[15] = po, mice, p.o., read-out: LD50 p.o.

CC(=O)O.N=C(N)NCCC[C@@H](C=O)NC(=O)[C@@H]1CCCN1C(=O)[C@H](N)Cc1ccccc1 [D-Phe-Pro-Arg-H.2 CH3 COOH, D-phenylalanyl-L-prolyl-L-arginine aldehyde acetate]
LD50 [1, 13]: 38 mg/kg
LD50 [1, 14]: 9 mg/kg
LD50 [1, 15]: 960 mg/kg
activity starting to decrease (in words) ([2]; isotonic salt solution, 5° C.): already after several days
Dose required for therapeutic effect, p.o., rabbit [3]: 100 mg/kg
Dose required for therapeutic effect, p.o., dog [4]: 100 mg/kg
amount required for a twofold thrombin time increase relative to the tripeptide aldehyde sulfate [5]: manifold
IC (2-fold thrombin time) [5]: 0.065 to 0.14 µg/mL
antithrombin potency upon standing in aqueous solution [6]: varying and rapidly decreasing
thrombin inhibition [7]: potent thrombin inhibitors

N=C(N)NCCC[C@@H](C=O)NC(=O)[C@@H]1CCCN1C(=O)[C@H](N)Cc1ccccc1 [citrate]
activity starting to decrease (in words) ([2]; isotonic salt solution, 5° C.): already after several days

Heparin
Dose required for therapeutic effect, i.v. infusion, rabbit [3]: 0.6 mg/kg/h
Dose required for therapeutic effect, s.c., rabbit [3]: 5.0 mg/kg
Dose required for therapeutic effect, i.v. infusion, dog [4]: 0.5 mg/kg/h
Dose required for therapeutic effect, s.c., dog [4]: 2.0 mg/kg
Amount of peptide required to increase thrombin time twofold immediately following dissolution of the peptide ([5]; human citrate plasma, pH 7.2, amount in the reaction mixture): 0.105 µg/mL
Relative activity ([5]; human citrate plasma): 19
activity given orally ([8]; oral): practically inactive at oral application
time until effect may be registered (in words) ([8]; primarily i.v. infusion): rapidly, within a short period of time

N=C(N)NCCC[C@@H](C=O)NC(=O)[C@@H]1CCCN1C(=O)[C@H](N)Cc1ccccc1.O=S(=O)(O)O [D-Phe-Pro-Arg-H.H2 SO4, D-Phenylalanyl-L-prolyl-L-arginine aldehyde sulfate]
toxicity data compared with the acetate and the carbamic acid derivative [9]: more favourable than those of either the acetate or the carbamic acid derivative
LD50 [1, 13]: 230 mg/kg
LD50 [1, 14]: 45 mg/kg
LD50 [1, 15]: > 2000 mg/kg
LD50 ([1]; po, oral administration, read-out: acute toxicity at oral administration): 2000 mg/kg
LD50 ([1]; sc, mice, s.c., read-out: LD50 s.c.): 1800 mg/kg
Relative activity after 0 days ([2]; isotonic salt solution, 5° C.): 100
retaining its antithrombin activity ([2]; isotonic salt solution, 5° C.): ≥ 90 days
IC (5-fold thrombin time) ([2]; pH 7.2, read-out: final concentration inducing a fivefold relative thrombin time (activity set up as 100)): 0.35 µM and 0.175 µg/mL
stable in aqueous medium ([2]; prolonged stability trials, aqueous medium): ≥ 180 days
failed to lose activity in solid form ([2]; solid form): ≥ 6 months
Dose required for therapeutic effect, i.v. infusion, rabbit [3]: 1.0 mg/kg/h
Dose required for therapeutic effect, p.o., rabbit [3]: 25 mg/kg
Dose required for therapeutic effect, s.c., rabbit [3]: 6.0 mg/kg
Dose required for therapeutic effect, i.v. infusion, dog [4]: 0.5 mg/kg/h
Dose required for therapeutic effect, p.o., dog [4]: 25 mg/kg
Dose required for therapeutic effect, s.c., dog [4]: 6.0 mg/kg
Relative activity ([5]; human citrate plasma): 100
IC (2-fold thrombin time) [5]: 0.02 µg/mL
antithrombin potency in vivo ([10]; in vivo): significant antithrombin potency in vivo
efficacy at intravenous and subcutaneous application ([10]; intravenous and subcutaneous, compared with heparin): in the range of that of heparin
oral dose at which therapeutic effect may be achieved [10]: 25 mg/kg
LD50 [11]: 58 mg/kg

N=C(NCCC[C@@H](C=O)NC(=O)[C@@H]1CCCN1C(=O)[C@H](N)Cc1ccccc1)NC(=O)O [D-Phe-Pro-Arg/COOH/-H, D-phenylalanyl-L-prolyl-N^G -carboxy-L-arginine aldehyde]
solubility [12]: poor solubility
LD50 [1, 15]: 1200 mg/kg
Relative activity after 0 days ([2]; isotonic salt solution, 5° C.): 100
activity starting to decrease (in words) ([2]; isotonic salt solution, 5° C.): already after several days
Dose required for therapeutic effect, p.o., rabbit [3]: 50 mg/kg
Dose required for therapeutic effect, s.c., rabbit [3]: 10.0 mg/kg
Dose required for therapeutic effect, i.v. infusion, dog [4]: 3.0 mg/kg/h
Dose required for therapeutic effect, p.o., dog [4]: 50 mg/kg
Dose required for therapeutic effect, s.c., dog [4]: 6.0 mg/kg
Relative activity ([5]; human citrate plasma): 45
amount required for a twofold thrombin time increase relative to the tripeptide aldehyde sulfate [5]: twofold
IC (2-fold thrombin time) [5]: 0.042 µg/mL
oral dose at which therapeutic effect may be achieved [10]: 50 mg/kg
potency after several days ([6]; aqueous buffer solution, after several days): significant reduction in potency
activity after several months in solid form ([6]; solid form, after several months): loss of original activity even in solid form
thrombin inhibition [7]: potent thrombin inhibitors

N=C(N)NCCC[C@@H](C=O)NC(=O)[C@@H]1CCCN1C(=O)[C@H](N)Cc1ccccc1 [tosylate]
change of antithrombin activity compared with the acetate ([2]; isotonic salt solution, Table 1 footnote d): changing similarly to that of the acetate

CC(=O)O.Cl.N=C(N)NCCC[C@@H](C=O)NC(=O)[C@@H]1CCCN1C(=O)[C@H](N)Cc1ccccc1 [D-Phe-Pro-Arg-H.2HCl, D-phenylalanyl-L-prolyl-L-arginine aldehyde acetate and hydrochloride]
activity starting to decrease after ([2]; isotonic salt solution, 5° C.): > 5 days
Dose required for therapeutic effect, p.o., dog [4]: 100 mg/kg
amount required for a twofold thrombin time increase relative to the tripeptide aldehyde sulfate [5]: manifold
IC (2-fold thrombin time) [5]: 0.06 to 0.13 µg/mL
antithrombin potency upon standing in aqueous solution [6]: varying and rapidly decreasing
